Drawing on PubChem BioAssay AID336 (DTP/NCI, 2004), this text covers T/C for 19 compounds.

Values joined by “and” are separate entries in the source; they are usually repeats but may differ in a detail not shown here. Equal entries are not always repeated. Inconclusive results and toxic doses are left out.

In the assay the test system is BDF1 mice, P388/VCR leukemia ip, median survival T/C. In words: NCI In Vivo Anticancer Drug Screen. Data for tumor model P388 Leukemia resistant to Vincristine; NSC 67574 (intraperitoneal) in B6D2F1 (BDF1) mice. Conditions: endpoint: median survival time, higher = longer survival. The protocol:
The antitumor activity of compounds was measured in mice bearing transplantable tumors. Survival or tumor size were measured and the results are expressed as the measurement made in the treated group (T) divided by the measurement made in the vehicle treated control group (C). The tumor model used in this assay is P388 Leukemia resistant to Vincristine; NSC 67574 (intraperitoneal) in B6D2F1 (BDF1) mice

The mark [1] stands for this setting: dose: 500.0 mg/kg/injection, schedule: Q01DX010 (ip), vehicle: saline.
[2] abbreviates: dose: 18.0 mg/kg/injection, schedule: Q01DX010 (ip), vehicle: saline.
[3] abbreviates: dose: 250.0 mg/kg/injection, schedule: Q01DX010 (ip), vehicle: saline.
Setting [4] is: dose: 50.0 mg/kg/injection, schedule: Q01DX010 (ip), vehicle: saline.
Setting [5] is: dose: 100.0 mg/kg/injection, schedule: Q01DX010 (ip), vehicle: saline.
Where [6] appears, read: dose: 8.0 mg/kg/injection, schedule: Q01DX010 (ip), vehicle: saline.

For the compound `Nc1nc(N)c2nc(CNc3ccc(C(=O)NC(CCC(=O)O)C(=O)O)cc3)cnc2n1` (stereo unspecified), the T/C was 118 % of control (dose: 25.0 micrograms/kg/injection, schedule: Q01DX010 (ip), vehicle: other); 114 % of control (dose: 50.0 micrograms/kg/injection, schedule: Q01DX010 (ip), vehicle: other); 166 % of control and 175 % of control (dose: 200.0 micrograms/kg/injection, schedule: Q01DX010 (ip), vehicle: other).
For the compound `CCOC(N)=O`, the T/C under setting [1] was 107 % of control and 119 % of control.
Consider `O=C(Nc1ccc(C2=NCCN2)cc1)c1ccc(NC(=O)c2ccc(C3=NCCN3)cc2)cc1`, for which the T/C under setting [2] is 104 % of control; the T/C (dose: 27.0 mg/kg/injection, schedule: Q01DX010 (ip), vehicle: saline) was 108 % of control; the T/C (dose: 40.0 mg/kg/injection, schedule: Q01DX010 (ip), vehicle: saline) is 113 % of control; the T/C (dose: 60.0 mg/kg/injection, schedule: Q01DX010 (ip), vehicle: saline) was 113 % of control.
Regarding `c1ccc(CCSc2ncnc3nc[nH]c23)cc1`, the T/C runs as follows: (dose: 62.5 mg/kg/injection, schedule: Q01DX010 (ip), vehicle: saline) 88 % of control; (dose: 125.0 mg/kg/injection, schedule: Q01DX010 (ip), vehicle: saline) 88 % of control; under setting [3], 96 % of control; under setting [1], 107 % of control.
As for `O=C(Nc1ccc(C2=NCCCN2)cc1)c1ccc(C(=O)Nc2ccc(C3=NCCCN3)cc2)cc1`, the T/C by setting is: (dose: 20.0 mg/kg/injection, schedule: Q04DX003 (ip), vehicle: Klucel (hydroxypropylcellulose) (HPC)) 158 % of control; (dose: 33.3 mg/kg/injection, schedule: Q04DX003 (ip), vehicle: Klucel (hydroxypropylcellulose) (HPC)) 101 % of control.
Regarding `O=C(Nc1ccc(C2=NCCN2)cc1)c1cc(C(=O)Nc2ccc(C3=NCCN3)cc2)cc([N+](=O)[O-])c1`, the T/C reads like this: (dose: 167.0 mg/kg/injection, schedule: Q01DX010 (ip), vehicle: saline) 95 % of control; under setting [3], 100 % of control; (dose: 375.0 mg/kg/injection, schedule: Q01DX010 (ip), vehicle: saline) 95 % of control; (dose: 512.0 mg/kg/injection, schedule: Q01DX010 (ip), vehicle: saline) 100 % of control.
For `COc1cccc2c1C(=O)c1c(O)c3c(c(O)c1C2=O)C[C@@](O)(C(=O)CO)C[C@@H]3OC1CC(N)C(O)C(C)O1` (stereo partly specified), the T/C runs as follows: (dose: 1.44 mg/kg/injection, schedule: Q04DX003 (ip), vehicle: saline) 172 % of control; (dose: 1.44 mg/kg/injection, schedule: Q04DX003 (ip), vehicle: water) 168 % of control; (dose: 2.4 mg/kg/injection, schedule: Q04DX003 (ip), vehicle: saline) 188 % of control; (dose: 2.4 mg/kg/injection, schedule: Q04DX003 (ip), vehicle: water) 159 % of control and 200 % of control; (dose: 4.0 mg/kg/injection, schedule: Q04DX003 (ip), vehicle: saline) 169 % of control; (dose: 4.0 mg/kg/injection, schedule: Q04DX003 (ip), vehicle: water) 155 % of control and 168 % of control. For the same compound, the T/C (dose: 6.67 mg/kg/injection, schedule: Q04DX003 (ip), vehicle: saline) is 182 % of control and the T/C (dose: 6.67 mg/kg/injection, schedule: Q04DX003 (ip), vehicle: water) is 100 % of control.
In the case of `CC1CN1P(=S)(N1CC1C)N1CC1C` (stereo unspecified), the T/C runs as follows: (dose: 1.25 mg/kg/injection, schedule: Q01DX010 (ip), vehicle: saline) 93 % of control; (dose: 2.5 mg/kg/injection, schedule: Q01DX010 (ip), vehicle: saline) 96 % of control and 100 % of control; (dose: 5.0 mg/kg/injection, schedule: Q01DX010 (ip), vehicle: saline) 100 % of control; (dose: 10.0 mg/kg/injection, schedule: Q01DX010 (ip), vehicle: saline) 93 % of control and 107 % of control.
For the compound `N[C@@H](Cc1ccc(N(CCCl)CCCl)cc1)C(=O)O`, the T/C reads like this: (dose: 3.6 mg/kg/injection, schedule: Q01DX001 (ip), vehicle: saline) 184 % of control; (dose: 6.0 mg/kg/injection, schedule: Q01DX001 (ip), vehicle: saline) 181 % of control; (dose: 10.0 mg/kg/injection, schedule: Q01DX001 (ip), vehicle: saline) 191 % of control; (dose: 16.7 mg/kg/injection, schedule: Q01DX001 (ip), vehicle: saline) 161 % of control.
For the compound `CCN(CC)CCNc1ccc(C)c2sc3ccccc3c(=O)c12`, the T/C was 159 % of control and 172 % of control under setting [4]; 100 % of control under setting [5].
In the case of `NC(C/[N+]([O-])=N/O)C(=O)O` (stereo unspecified), the T/C is 157 % of control (dose: 173.0 mg/kg/injection, schedule: Q04DX003 (ip), vehicle: sodium bicarbonate); 179 % of control (dose: 288.0 mg/kg/injection, schedule: Q04DX003 (ip), vehicle: sodium bicarbonate); 181 % of control (dose: 480.0 mg/kg/injection, schedule: Q04DX003 (ip), vehicle: sodium bicarbonate); 118 % of control (dose: 800.0 mg/kg/injection, schedule: Q04DX003 (ip), vehicle: sodium bicarbonate).
As to `COc1cc2cc3c4cc(OC)c(OC)cc4cc[n+]3c(C)c2cc1OC` (tested in a mixture with another compound), the T/C was 106 % of control (dose: 46.7 mg/kg/injection, schedule: Q04DX003 (ip), vehicle: alkali diluted with saline); 110 % of control (dose: 77.8 mg/kg/injection, schedule: Q04DX003 (ip), vehicle: alkali diluted with saline); 115 % of control (dose: 130.0 mg/kg/injection, schedule: Q04DX003 (ip), vehicle: alkali diluted with saline); 124 % of control (dose: 216.0 mg/kg/injection, schedule: Q04DX003 (ip), vehicle: alkali diluted with saline).
For the compound `COc1cc([C@@H]2c3cc4c(cc3[C@@H](OC3OC5CO[C@@H](c6cccs6)OC5C(O)C3O)[C@H]3COC(=O)[C@H]23)OCO4)cc(OC)c1O` (stereo partly specified), the T/C is 153 % of control (dose: 5.4 mg/kg/injection, schedule: Q04DX003 (ip), vehicle: clinical formulation) and 172 % of control (dose: 15.0 mg/kg/injection, schedule: Q04DX003 (ip), vehicle: clinical formulation).
Turning to `CCC1(O)CC2CN(CCc3c([nH]c4ccccc34)C(C(=O)OC)(c3cc4c(cc3OC)N(C)C3C(O)(C(=O)NCCO)C(O)C5(CC)C=CCN6CCC43C65)C2)C1` (stereo unspecified), the T/C runs as follows: (dose: 500.0 micrograms/kg/injection, schedule: Q04DX003 (ip), vehicle: saline) 107 % of control; (dose: 1000.0 micrograms/kg/injection, schedule: Q04DX003 (ip), vehicle: saline) 106 % of control; (dose: 2000.0 micrograms/kg/injection, schedule: Q04DX003 (ip), vehicle: saline) 105 % of control; (dose: 4000.0 micrograms/kg/injection, schedule: Q04DX003 (ip), vehicle: saline) 108 % of control.
Turning to `[I][Hg][CH2]C1COC([CH2][Hg][I])CO1` (stereo unspecified), the T/C runs as follows: (dose: 0.78 mg/kg/injection, schedule: Q01DX010 (ip), vehicle: saline) 88 % of control; (dose: 1.56 mg/kg/injection, schedule: Q01DX010 (ip), vehicle: saline) 103 % of control; (dose: 3.13 mg/kg/injection, schedule: Q01DX010 (ip), vehicle: saline) 111 % of control.
As for `O=C(Nc1ccc(C2=NCCN2)cc1)c1cccc(C(=O)Nc2ccc(C3=NCCN3)cc2)c1`, the T/C is, setting by setting: under setting [6], 118 % of control; (dose: 16.0 mg/kg/injection, schedule: Q01DX010 (ip), vehicle: saline) 111 % of control; (dose: 64.0 mg/kg/injection, schedule: Q01DX010 (ip), vehicle: saline) 158 % of control.
In the case of `O=C1C(NC(=O)C2CCCCC2)=C(N2CC2)C(=O)C(NC(=O)C2CCCCC2)=C1N1CC1`, the T/C is, setting by setting: (dose: 25.0 mg/kg/injection, schedule: Q01DX010 (ip), vehicle: saline) 103 % of control; under setting [4], 115 % of control; under setting [5], 115 % of control; (dose: 200.0 mg/kg/injection, schedule: Q01DX010 (ip), vehicle: saline) 123 % of control.
Take `O=C(Nc1ccc(C2=NCCN2)cc1)c1ccc(C(=O)Nc2ccc(C3=NCCN3)cc2)c([N+](=O)[O-])c1`: the T/C (dose: 6.0 mg/kg/injection, schedule: Q01DX010 (ip), vehicle: saline) was 103 % of control; the T/C under setting [6] was 114 % of control; the T/C (dose: 12.0 mg/kg/injection, schedule: Q01DX010 (ip), vehicle: saline) is 111 % of control; the T/C under setting [2] was 104 % of control and 111 % of control.
For the compound `CS(=O)(=O)OCCCl`, the T/C runs as follows: (dose: 37.5 mg/kg/injection, schedule: Q01DX010 (ip), vehicle: saline) 95 % of control and 100 % of control; (dose: 75.0 mg/kg/injection, schedule: Q01DX010 (ip), vehicle: saline) 95 % of control and 100 % of control.
